Test results reported in patent publication US20130337052A1, “System and Method of Reducing Impairment of Alertness, Concentration, Motivation, and Creativity Caused by Medication” (priority 2012, published 2013).

Assays:
[1] = lithium citrate syrup compared to lithium carbonate tablets; cited from earlier work
[2] = Side effects reported by patients using a medication containing THC; assay type: in vivo, human; details: e.g. Marinol
Description: Patients using cannabinoid medications 10 prescribed for the treatment of symptoms such as pain and experiencing the undesirable side effects of the cannabinoid medications may provide relief through the administration of lithium compounds 30. […] Patients also reported a lack of motivation and a reduction in creativity while taking the medication. As a result, the patients have been unable or unwilling to perform ordinary tasks, such as, e.g., tasks associated with the patient's employment. However, upon treatment with lithium compounds 30, the alertness, concentration, motivation, and creativity of the patients were restored. As a result, the patients were able to continue to work productively while using the cannabinoid-based medication.

[3] = patients received up to 210 milligrams per day; cited from earlier work
CB1 receptors = CB1 receptors (Homo sapiens, UniProt P21554); details: relative to THC; cited from earlier work
CB2 receptors = CB2 receptors (Homo sapiens, UniProt P34972); details: relative to THC; cited from earlier work
[4] = 150 milligrams per day; cited from earlier work

Sequence of CB2 receptors (P34972 whole entry): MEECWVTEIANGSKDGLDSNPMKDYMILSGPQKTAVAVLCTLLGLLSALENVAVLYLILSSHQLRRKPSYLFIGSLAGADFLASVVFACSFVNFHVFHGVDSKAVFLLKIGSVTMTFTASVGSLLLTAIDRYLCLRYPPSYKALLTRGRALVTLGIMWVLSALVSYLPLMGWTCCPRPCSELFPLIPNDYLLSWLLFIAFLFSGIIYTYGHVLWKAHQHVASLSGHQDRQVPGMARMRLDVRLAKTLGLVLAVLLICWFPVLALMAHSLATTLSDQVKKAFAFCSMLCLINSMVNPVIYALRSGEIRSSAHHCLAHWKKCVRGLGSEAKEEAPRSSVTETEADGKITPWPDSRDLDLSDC
Sequence of CB1 receptors (P21554 whole entry): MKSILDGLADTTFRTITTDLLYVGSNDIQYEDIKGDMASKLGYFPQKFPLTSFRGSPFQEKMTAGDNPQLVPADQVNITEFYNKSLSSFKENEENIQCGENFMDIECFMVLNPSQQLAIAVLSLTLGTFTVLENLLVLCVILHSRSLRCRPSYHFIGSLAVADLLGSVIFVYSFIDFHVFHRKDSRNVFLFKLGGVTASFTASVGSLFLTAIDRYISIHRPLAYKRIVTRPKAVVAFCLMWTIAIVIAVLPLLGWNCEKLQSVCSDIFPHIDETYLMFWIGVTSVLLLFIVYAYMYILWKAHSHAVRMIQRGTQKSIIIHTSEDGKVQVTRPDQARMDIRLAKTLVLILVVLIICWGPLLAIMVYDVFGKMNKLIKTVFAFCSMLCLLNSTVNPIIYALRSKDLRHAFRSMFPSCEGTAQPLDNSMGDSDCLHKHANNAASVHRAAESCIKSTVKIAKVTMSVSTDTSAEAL

O=C([O-])CC(O)(CC(=O)[O-])C(=O)[O-].[Li+].[Li+].[Li+] [lithium citrate]
rate at which lithium enters the body [1]: more rapidly

CCCCCc1cc(O)c2c(c1)OC(C)(C)[C@@H]1CCC(C)=C[C@@H]21 [THC, (−)-trans-Δ9-tetrahydrocannabinol]
side effects experienced by patients [2]: difficulty staying awake and maintaining concentration | toxic effects in clinical studies [3]: without toxic effects

CCCCCc1cc(O)c2c(c1)OC(C)(C)c1ccc(C)cc1-2 [CBN, cannabinol]
agonist effect on the CB1 receptor compared with THC (CB1 receptors): weaker agonist effect | agonist effect on the CB2 receptor compared with THC (CB2 receptors): weaker agonist effect

O=C([O-])c1cc(=O)[nH]c(=O)[nH]1.[Li+] [lithium orotate]
effect in the treatment of alcohol addiction [4]: beneficial
